*1 amine or outer side, *2 acyl side, *3 side chain or, on linkers, in order; H or OH if unused. Where a SMILES comes first, the peptide text is derived from it. Bridges are numbered along the chain shown (N, C = ends). [ ]: non-standard residue; d: D form. The star is where a group is joined. DOTA = O=C(O)CN1CCN(CC(=O)O)CCN(CC(=O)*)CCN(CC(=O)O)CC1; Phe(2,4-Cl2) = N[C@@H](Cc1ccc(Cl)cc1Cl)C(=O)O; Phe(4-Cl) = N[C@@H](Cc1ccc(Cl)cc1)C(=O)O; Pro(cis-4-F) = O=C(O)[C@@H]1C[C@H](F)CN1; Phe(4-NH2) = Nc1ccc(C[C@H](N)C(=O)O)cc1; Pro(4R-NH2) = N[C@H]1CN[C@H](C(=O)O)C1; 1Nal = N[C@@H](Cc1cccc2ccccc12)C(=O)O; Hyp = O=C(O)[C@@H]1C[C@@H](O)CN1; Pentanoyl(4-Me) = CC(C)CCC(=O)*; Cit = NC(=O)NCCC[C@H](N)C(=O)O; NMeL = CN[C@@H](CC(C)C)C(=O)O; Butoxycarbonyl = CCCCOC(=O)*; Suc = O=C(CCC(=O)[*:2])[*:1]; hCys = N[C@@H](CCS)C(=O)O; Nva = CCC[C@H](N)C(=O)O; Pentanoyl = CCCCC(=O)*; Aib = CC(C)(N)C(=O)O
How the values were obtained:
[1] = target: T1, uPAR-expressing HEC-265 human endometrial adenocarcinoma cells (Homo sapiens, UniProt Q03405); experiment: Competitive FACS binding assay; settings: pIC50 category of FACS binding
T1 construct: Cell surface uPAR-expressing HEC-265 human endometrial adenocarcinoma cells; host or cells: HEC-265
T1 sequence (Q03405 23-335): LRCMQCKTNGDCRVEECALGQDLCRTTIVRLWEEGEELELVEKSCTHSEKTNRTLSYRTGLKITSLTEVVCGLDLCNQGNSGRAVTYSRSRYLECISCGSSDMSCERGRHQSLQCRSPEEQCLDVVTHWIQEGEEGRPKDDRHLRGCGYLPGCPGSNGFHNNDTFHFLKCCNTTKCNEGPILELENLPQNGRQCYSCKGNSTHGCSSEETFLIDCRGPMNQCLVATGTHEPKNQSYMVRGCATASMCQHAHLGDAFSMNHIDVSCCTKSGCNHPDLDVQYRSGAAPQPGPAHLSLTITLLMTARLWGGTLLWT
How it was run: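 HEC-265 cells incubated 1 h at 4 °C with 10 nM biotinylated uPAR peptide tracer plus increasing test compound, then stained with APC-streptavidin on ice. Median APC fluorescence by flow cytometry; 4PL fit gives pIC50.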

[2] = target: T2, human uPAR (uPAR-Fc) (Homo sapiens, UniProt Q03405); experiment: Surface plasmon resonance (SPR) assay, single cycle kinetics; assay type: binding; settings: pKD category for uPAR SPR activity assay; uPAR-Fc on Protein A-Chip, 25°C; read-out: pKD CAT (converted)
T2 construct: comprising amino acids Leu23-Arg303 according to UniProt entry Q03405.1; purchased R&D Systems 10378-UK-100
T2 sequence (Q03405 23-303): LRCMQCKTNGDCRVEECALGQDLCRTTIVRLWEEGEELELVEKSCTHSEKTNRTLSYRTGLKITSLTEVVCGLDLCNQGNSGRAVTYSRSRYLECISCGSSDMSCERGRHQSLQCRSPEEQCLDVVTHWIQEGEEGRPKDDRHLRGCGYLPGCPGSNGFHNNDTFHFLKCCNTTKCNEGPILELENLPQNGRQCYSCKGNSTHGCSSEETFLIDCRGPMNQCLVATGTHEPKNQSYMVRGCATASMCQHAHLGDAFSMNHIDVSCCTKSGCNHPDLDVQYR
How it was run: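 uPAR-Fc (Leu23-Arg303 extracellular domains, human IgG1 Fc) captured on Protein A chip to ~2000 RU; single-cycle kinetics at 25°C in HEPES running buffer pH 7.4 with 0.1% DMSO. KD from double-referenced sensorgrams fitted to 1:1 Langmuir model, reported as pKD.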

| SMILES | IC50 [1] | Kd [2] |
| --- | --- | --- |
| CC[C@H](C)[C@@H]1NC(=O)[C@@H]2C[C@@H](N)CN2C(=O)[C@@H]2CCCN2C(=O)[C@H](Cc2ccccc2)NC(=O)[C@H](Cc2ccc(O)cc2)NC(=O)[C@H](CCC(N)=O)NC(=O)[C@H](CCCNC(N)=O)NC(=O)[C@@H](NC(=O)CCC(C)C)CSSC[C@@H](C(N)=O)NC(=O)[C@H](CC(C)C)NC1=O [UPAR-295, iHex-[Cys-Cit-Gln-Tyr-Phe-Pro-Tap-Ile-Leu-Cys]-NH2] ({Pentanoyl(4-Me)}-C[Cit]QYFP[Pro(4R-NH2)]ILC-NH2; disulfide 1-10) | ≤ 10 nM | < 1.58 nM |
| CCC[C@H](NC(=O)CCC(=O)O)C(=O)N[C@H]1CSSC[C@@H](C(N)=O)NC(=O)[C@H](CCC)NC(=O)[C@H]([C@@H](C)CC)NC(=O)[C@@H]2C[C@@H](O)CN2C(=O)[C@@H]2CCCN2C(=O)[C@H](Cc2ccccc2)NC(=O)[C@H](Cc2ccc(O)cc2)NC(=O)[C@H](CCCCNC(=O)CN2CCN(CC(=O)O)CCN(CC(=O)O)CCN(CC(=O)O)CC2)NC(=O)[C@H]([C@@H](C)O)NC1=O [UPAR-297, Succinyl-Nva-[Cys-Thr-Lys(DOTA)-Tyr-Phe-Pro-Hyp-Ile-Nva-Cys]-NH2] (Suc-[Nva]CTK(DOTA)YFP[Hyp]I[Nva]C-NH2; disulfide 2-11) | ≤ 10 nM | < 1.58 nM |
| CCCCC(=O)N[C@H]1CSSC[C@@H](C(N)=O)NC(=O)[C@H](CCC)NC(=O)[C@H]([C@@H](C)CC)NC(=O)[C@@H]2C[C@@H](O)CN2C(=O)[C@H](CCCCN)NC(=O)[C@H](Cc2ccccc2)NC(=O)[C@H](Cc2ccc(O)cc2)NC(=O)[C@H](CCC(N)=O)NC(=O)[C@H](CCCNC(=N)N)NC1=O [UPAR-298, Pent-[Cys-Arg-Gln-Tyr-Phe-Lys-Hyp-Ile-Nva-Cys]-NH2] (Pentanoyl-CRQYFK[Hyp]I[Nva]C-NH2; disulfide 1-10) | 39.8 to 100 nM | 10 to 100 nM |
| CCCCC(=O)N[C@H]1CSSC[C@@H](C(N)=O)NC(=O)[C@H](CCC)NC(=O)[C@H]([C@@H](C)CC)NC(=O)C(C)(C)NC(=O)[C@@H]2CCCN2C(=O)[C@H](Cc2ccccc2)NC(=O)[C@H](Cc2ccc(O)cc2)NC(=O)[C@H](CCCCNC(=O)CN2CCN(CC(=O)O)CCN(CC(=O)O)CCN(CC(=O)O)CC2)NC(=O)[C@H](CCCNC(N)=O)NC1=O [UPAR-299, Pent-[Cys-Cit-Lys(DOTA)-Tyr-Phe-Pro-Aib-Ile-Nva-Cys]-NH2] (Pentanoyl-C[Cit]K(DOTA)YFP[Aib]I[Nva]C-NH2; disulfide 1-10) | ≤ 10 nM | < 1.58 nM |
| CCCCC(=O)N[C@H]1CCSSC[C@@H](C(N)=O)NC(=O)[C@H](CCC)NC(=O)[C@H]([C@@H](C)CC)NC(=O)[C@@H]2C[C@@H](O)CN2C(=O)[C@@H]2CCCN2C(=O)[C@H](Cc2ccccc2)NC(=O)[C@H](Cc2ccc(O)cc2)NC(=O)[C@H](CCC(N)=O)NC(=O)[C@H](CCCNC(=N)N)NC1=O [UPAR-300, Pent-[Hcy-Arg-Gln-Tyr-Phe-Pro-Hyp-Ile-Nva-Cys]-NH2] (Pentanoyl-[hCys]RQYFP[Hyp]I[Nva]C-NH2; disulfide 1-10) | 12.6 to 31.6 nM | 1.58 to 10 nM |
| CCCCC(=O)N[C@H]1CSSC[C@@H](C(N)=O)NC(=O)[C@H](CCC)NC(=O)[C@H]([C@@H](C)CC)NC(=O)[C@@H]2C[C@@H](O)CN2C(=O)[C@H](CC(C)C)N(C)C(=O)[C@H](Cc2ccccc2)NC(=O)[C@H](Cc2ccc(O)cc2)NC(=O)[C@H](CCC(N)=O)NC(=O)[C@H](CCCNC(=N)N)NC1=O [UPAR-302, Pent-[Cys-Arg-Gln-Tyr-Phe-Nml-Hyp-Ile-Nva-Cys]-NH2] (Pentanoyl-CRQYF[NMeL][Hyp]I[Nva]C-NH2; disulfide 1-10) | 12.6 to 31.6 nM | 1.58 to 10 nM |
| CCCCOC(=O)N[C@H]1CSSC[C@@H](C(N)=O)NC(=O)[C@H](CCC)NC(=O)[C@H]([C@@H](C)CC)NC(=O)[C@@H]2C[C@@H](O)CN2C(=O)[C@@H]2C[C@H](F)CN2C(=O)[C@H](Cc2ccc(Cl)cc2)NC(=O)[C@H](Cc2ccc(O)cc2)NC(=O)[C@H](CCCCNC(=O)CN2CCN(CC(=O)O)CCN(CC(=O)O)CCN(CC(=O)O)CC2)NC(=O)[C@H](CCCNC(N)=O)NC1=O [UPAR-304, Butoc-[Cys-Cit-Lys(DOTA)-Tyr-Pcf-4Cfp-Hyp-Ile-Nva-Cys]-NH2] (Butoxycarbonyl-C[Cit]K(DOTA)Y[Phe(4-Cl)][Pro(cis-4-F)][Hyp]I[Nva]C-NH2; disulfide 1-10) | ≤ 10 nM | < 1.58 nM |
| CC[C@H](C)[C@@H]1NC(=O)[C@H]2CCCN2C(=O)[C@@H]2CCCN2C(=O)[C@H](Cc2ccccc2)NC(=O)[C@H](Cc2ccc(O)cc2)NC(=O)[C@H](CCC(N)=O)NC(=O)[C@H](CCCNC(N)=O)NC(=O)[C@@H](NC(=O)CCC(C)C)CSSC[C@@H](C(N)=O)NC(=O)[C@H](CC(C)C)NC1=O [UPAR-305, iHex-[Cys-Cit-Gln-Tyr-Phe-Pro-pro-Ile-Leu-Cys]-NH2] ({Pentanoyl(4-Me)}-C[Cit]QYFP[dP]ILC-NH2; disulfide 1-10) | ≥ 126 nM | > 100 nM |
| CC[C@H](C)[C@@H]1NC(=O)[C@@H]2C[C@H](F)CN2C(=O)[C@@H]2CCCN2C(=O)[C@H](Cc2ccccc2)NC(=O)[C@H](Cc2ccc(O)cc2)NC(=O)[C@H](CCC(N)=O)NC(=O)[C@H](CCCNC(N)=O)NC(=O)[C@@H](NC(=O)CCC(C)C)CSSC[C@@H](C(N)=O)NC(=O)[C@H](CC(C)C)NC1=O [UPAR-307, iHex-[Cys-Cit-Gln-Tyr-Phe-Pro-4Cfp-Ile-Leu-Cys]-NH2] ({Pentanoyl(4-Me)}-C[Cit]QYFP[Pro(cis-4-F)]ILC-NH2; disulfide 1-10) | ≤ 10 nM | < 1.58 nM |
| CCCCC(=O)N[C@H]1CSSC[C@@H](C(N)=O)NC(=O)[C@H](CCC)NC(=O)[C@H]([C@@H](C)CC)NC(=O)[C@@H]2C[C@@H](O)CN2C(=O)[C@@H]2CCCN2C(=O)[C@H](Cc2c[nH]c3ccccc23)NC(=O)[C@H](Cc2ccc(O)cc2)NC(=O)[C@H](CCC(N)=O)NC(=O)[C@H](CCCNC(=N)N)NC1=O [UPAR-308, Pent-[Cys-Arg-Gln-Tyr-Trp-Pro-Hyp-Ile-Nva-Cys]-NH2] (Pentanoyl-CRQYWP[Hyp]I[Nva]C-NH2; disulfide 1-10) | ≤ 10 nM | 1.58 to 10 nM |
| CCCCC(=O)N[C@H]1CSSC[C@@H](C(N)=O)NC(=O)[C@H](CCC)NC(=O)[C@H]([C@@H](C)CC)NC(=O)[C@@H]2C[C@@H](O)CN2C(=O)[C@@H]2CCCN2C(=O)[C@H](Cc2ccccc2)NC(=O)[C@H](Cc2ccc(O)cc2)NC(=O)[C@H](CCC(N)=O)NC(=O)[C@H](CCCNC(N)=O)NC1=O [UPAR-309, Pent-[Cys-Cit-Gln-Tyr-Phe-Pro-Hyp-Ile-Nva-Cys]-NHz] (Pentanoyl-C[Cit]QYFP[Hyp]I[Nva]C-NH2; disulfide 1-10) | ≤ 10 nM | < 1.58 nM |
| CC[C@H](C)[C@@H]1NC(=O)[C@@H](C)NC(=O)[C@@H]2CCCN2C(=O)[C@H](Cc2cccc3ccccc23)NC(=O)[C@H](Cc2ccc(O)cc2)NC(=O)[C@H](CCC(N)=O)NC(=O)[C@H](CCCNC(N)=O)NC(=O)[C@@H](NC(=O)CCC(C)C)CSSC[C@@H](C(N)=O)NC(=O)[C@H](CC(C)C)NC1=O [UPAR-310, iHex-[Cys-Cit-Gln-Tyr-1Ni-Pro-ala-Ile-Leu-Cys]-NH2] ({Pentanoyl(4-Me)}-C[Cit]QY[1Nal]P[dA]ILC-NH2; disulfide 1-10) | ≤ 10 nM | < 1.58 nM |
| CC[C@H](C)[C@@H]1NC(=O)[C@H](C)NC(=O)[C@@H]2CCCN2C(=O)[C@H](Cc2ccccc2)NC(=O)[C@H](Cc2ccc(O)cc2)NC(=O)[C@H](CCSC)NC(=O)[C@H](CCCNC(=N)N)NC(=O)[C@@H](NC(=O)[C@H](CC(C)C)NC(=O)[C@H](CC(=O)O)NC(=O)[C@@H](N)CCSC)CSSC[C@@H](C(N)=O)NC(=O)[C@H](CC(C)C)NC1=O [UPAR-312, H-Met-Asp-Leu-[Cys-Arg-Met-Tyr-Phe-Pro-Ala-Ile-Leu-Cys]-NH2] (H-MDLCRMYFPAILC-NH2; disulfide 4-13) | ≤ 10 nM | 1.58 to 10 nM |
| CCCCC(=O)N[C@H]1CSSC[C@@H](C(N)=O)NC(=O)[C@H](CCC)NC(=O)[C@H]([C@@H](C)CC)NC(=O)[C@@H]2C[C@@H](N)CN2C(=O)[C@@H]2CCCN2C(=O)[C@H](Cc2ccccc2)NC(=O)[C@H](Cc2ccc(O)cc2)NC(=O)[C@H](CCCNC(=N)N)NC(=O)[C@H](CCCNC(=N)N)NC1=O [UPAR-313, Pent-[Cys-Arg-Arg-Tyr-Phe-Pro-Tap-Ile-Nva-Cys]-NH2] (Pentanoyl-CRRYFP[Pro(4R-NH2)]I[Nva]C-NH2; disulfide 1-10) | ≤ 10 nM | < 1.58 nM |
| CC[C@H](C)[C@@H]1NC(=O)[C@@H](C)NC(=O)[C@@H]2CCCN2C(=O)[C@H](Cc2ccccc2)NC(=O)[C@H](Cc2ccc(N)cc2)NC(=O)[C@H](CCC(N)=O)NC(=O)[C@H](CCCNC(N)=O)NC(=O)[C@@H](NC(=O)CCC(C)C)CSSC[C@@H](C(N)=O)NC(=O)[C@H](CC(C)C)NC1=O [UPAR-314, iHex-[Cys-Cit-Gln-Aph-Phe-Pro-ala-Ile-Leu-Cys]-NH2] ({Pentanoyl(4-Me)}-C[Cit]Q[Phe(4-NH2)]FP[dA]ILC-NH2; disulfide 1-10) | ≤ 10 nM | < 1.58 nM |
| CCCCC(=O)N[C@H]1CSSC[C@@H](C(N)=O)NC(=O)[C@H](CCC)NC(=O)[C@H]([C@@H](C)CC)NC(=O)[C@@H]2C[C@@H](O)CN2C(=O)[C@@H]2CCCN2C(=O)[C@H](Cc2ccc(Cl)cc2Cl)NC(=O)[C@H](Cc2ccc(O)cc2)NC(=O)[C@H](CCCCNC(=O)CN2CCN(CC(=O)O)CCN(CC(=O)O)CCN(CC(=O)O)CC2)NC(=O)[C@H](CCCNC(N)=O)NC1=O [UPAR-315, Pent-[Cys-Cit-Lys(DOTA)-Tyr-Egm-Pro-Hyp-Ile-Nva-Cys]-NHz] (Pentanoyl-C[Cit]K(DOTA)Y[Phe(2,4-Cl2)]P[Hyp]I[Nva]C-NH2; disulfide 1-10) | ≤ 10 nM | < 1.58 nM |

Source: patent EP4610269A1, “UROKINASE PLASMINOGEN ACTIVATOR SURFACE RECEPTOR (UPAR) LIGANDS FOR DIAGNOSTIC OR THERAPEUTIC USE” (3B Pharmaceuticals GmbH, priority 2024, dated 2025)
